From PubChem BioAssay AID1259407 (Chemical Carcinogenesis Research Information System (CCRIS), 2018)
Active and inactive are the calls of the source. How the calls were made is not given here.

Tested on: CCRIS mutagenicity, Ames/micronucleus/aberration tests
Experiment: CCRIS mutagenicity studies
[1] = Test System: AMES SALMONELLA TYPHIMURIUM, Strain/Indicator: TA98, Metabolic Activation: NONE, Method: PREINCUBATION
[2] = Test System: AMES SALMONELLA TYPHIMURIUM, Strain/Indicator: TA100, Metabolic Activation: NONE, Method: PREINCUBATION
[3] = Test System: AMES SALMONELLA TYPHIMURIUM, Strain/Indicator: TA98, Metabolic Activation: NONE, Method: STANDARD PLATE
[4] = Test System: AMES SALMONELLA TYPHIMURIUM, Strain/Indicator: TA100, Metabolic Activation: NONE, Method: STANDARD PLATE
[5] = Test System: AMES SALMONELLA TYPHIMURIUM, Strain/Indicator: TA98, Metabolic Activation: RAT, LIVER, S-9, AROCLOR 1254, Method: STANDARD PLATE
[6] = Test System: AMES SALMONELLA TYPHIMURIUM, Strain/Indicator: TA100, Metabolic Activation: RAT, LIVER, S-9, PHENOBARBITAL, Method: STANDARD PLATE
[7] = Test System: AMES SALMONELLA TYPHIMURIUM, Strain/Indicator: TA98, Metabolic Activation: RAT, LIVER, S-9, PHENOBARBITAL, Method: STANDARD PLATE

## Cc1ccc2ncccc2c1
Test System: AMES SALMONELLA TYPHIMURIUM, Strain/Indicator: TA98, Metabolic Activation: HAMSTER, LIVER, S-9, AROCLOR 1254 (30%), Method: PREINCUBATION
  mutagenic call: active; positive
[1]
  mutagenic call: inactive; negative
Test System: AMES SALMONELLA TYPHIMURIUM, Strain/Indicator: TA98, Metabolic Activation: RAT, LIVER, S-9, AROCLOR 1254 (5 OR 10%), Method: PREINCUBATION
  mutagenic call: inactive; negative
Test System: AMES SALMONELLA TYPHIMURIUM, Strain/Indicator: TA100, Metabolic Activation: HAMSTER, LIVER, S-9, AROCLOR 1254 (30%), Method: PREINCUBATION
  mutagenic call: active; positive
[2]
  mutagenic call: inactive; negative
Test System: AMES SALMONELLA TYPHIMURIUM, Strain/Indicator: TA100, Metabolic Activation: RAT, LIVER, S-9, AROCLOR 1254 (30%), Method: PREINCUBATION
  mutagenic call: active; positive
Test System: AMES SALMONELLA TYPHIMURIUM, Strain/Indicator: TA100, Metabolic Activation: RAT, LIVER, S-9, PHENOBARBITAL AND 5,6-BENZOFLAVONE, Method: PREINCUBATION
  mutagenic call: active; positive
Test System: AMES SALMONELLA TYPHIMURIUM, Strain/Indicator: TA100, Metabolic Activation: RAT, LIVER, S-9, PHENOBARBITAL AND 5,6-NAPHTHOFLAVONE, Method: PREINCUBATION
  mutagenic call: active; positive
Test System: AMES SALMONELLA TYPHIMURIUM, Strain/Indicator: TA100, Metabolic Activation: RAT, LIVER, S-9, Method: PREINCUBATION
  mutagenic call: active; positive
Test System: UDS RODENT HEPATOCYTES, Strain/Indicator: THY INCORP (NON-S-PHASE), Metabolic Activation: NONE, Method: AUTORADIOGRAPHY
  mutagenic call: inactive; negative

## Clc1cccc(Cl)c1NC1=NCCN1
[1]
  mutagenic call: inactive; negative
Test System: AMES SALMONELLA TYPHIMURIUM, Strain/Indicator: TA98, Metabolic Activation: S-9, Method: PREINCUBATION
  mutagenic call: inactive; negative
[2]
  mutagenic call: inactive; negative
Test System: AMES SALMONELLA TYPHIMURIUM, Strain/Indicator: TA100, Metabolic Activation: S-9, Method: PREINCUBATION
  mutagenic call: inactive; negative
Test System: AMES SALMONELLA TYPHIMURIUM, Strain/Indicator: TA1535, Metabolic Activation: NONE, Method: PREINCUBATION
  mutagenic call: inactive; negative
Test System: AMES SALMONELLA TYPHIMURIUM, Strain/Indicator: TA1535, Metabolic Activation: S-9, Method: PREINCUBATION
  mutagenic call: inactive; negative
Test System: AMES SALMONELLA TYPHIMURIUM, Strain/Indicator: TA1537, Metabolic Activation: NONE, Method: PREINCUBATION
  mutagenic call: inactive; negative
Test System: AMES SALMONELLA TYPHIMURIUM, Strain/Indicator: TA1537, Metabolic Activation: S-9, Method: PREINCUBATION
  mutagenic call: inactive; negative
Test System: E. COLI, Strain/Indicator: WP2 UVRA, Metabolic Activation: NONE, Method: PREINCUBATION
  mutagenic call: inactive; negative
Test System: E. COLI, Strain/Indicator: WP2 UVRA, Metabolic Activation: S-9, Method: PREINCUBATION
  mutagenic call: inactive; negative
Test System: UDS RAT HEPATOCYTES, Strain/Indicator: THY INCORP, Metabolic Activation: NONE, Method: IN VIVO-IN VITRO
  mutagenic call: inactive; negative

## CCOCCl
Test System: E. COLI, Strain/Indicator: H/R30R, Metabolic Activation: NONE, Method: PREINCUBATION
  mutagenic call: active; positive
Test System: E. COLI, Strain/Indicator: HS30R UVRA, Metabolic Activation: NONE, Method: PREINCUBATION
  mutagenic call: active; positive

## Cc1ccc(C)c2c1c1ccccc1n2C
[3]
  mutagenic call: inactive; negative
Test System: AMES SALMONELLA TYPHIMURIUM, Strain/Indicator: TA98, Metabolic Activation: RAT LIVER S-9, AROCLOR 1254, Method: STANDARD PLATE
  mutagenic call: active; positive
[4]
  mutagenic call: inactive; negative
Test System: AMES SALMONELLA TYPHIMURIUM, Strain/Indicator: TA100, Metabolic Activation: RAT LIVER S-9, AROCLOR 1254, Method: STANDARD PLATE
  mutagenic call: active; positive

## CN(C)CCc1cc(O)ccc1CNc1ccccn1
Test System: AMES SALMONELLA TYPHIMURIUM, Strain/Indicator: TA97, Metabolic Activation: NONE, Method: STANDARD PLATE
  mutagenic call: inactive; negative
Test System: AMES SALMONELLA TYPHIMURIUM, Strain/Indicator: TA97, Metabolic Activation: RAT, LIVER, S-9, AROCLOR 1254, Method: STANDARD PLATE
  mutagenic call: inactive; negative
[3]
  mutagenic call: inactive; negative
[5]
  mutagenic call: inactive; negative
[4]
  mutagenic call: inactive; negative
Test System: AMES SALMONELLA TYPHIMURIUM, Strain/Indicator: TA100, Metabolic Activation: RAT, LIVER, S-9, AROCLOR 1254, Method: STANDARD PLATE
  mutagenic call: inactive; negative
Test System: AMES SALMONELLA TYPHIMURIUM, Strain/Indicator: TA102, Metabolic Activation: NONE, Method: STANDARD PLATE
  mutagenic call: inactive; negative
Test System: AMES SALMONELLA TYPHIMURIUM, Strain/Indicator: TA102, Metabolic Activation: RAT, LIVER, S-9, AROCLOR 1254, Method: STANDARD PLATE
  mutagenic call: inactive; negative

## CCN=NC(C)(C)OO
Test System: AMES SALMONELLA TYPHIMURIUM, Strain/Indicator: TA1535, Metabolic Activation: NONE
  mutagenic call: inactive; negative
Test System: E. COLI, Strain/Indicator: WP2 (HCR-), Metabolic Activation: NONE
  mutagenic call: active; positive

## O=[N+]([O-])C1CCCC1
[2]
  mutagenic call: inactive; negative
Test System: AMES SALMONELLA TYPHIMURIUM, Strain/Indicator: TA100, Metabolic Activation: RAT, LIVER, S-9, AROCLOR, Method: PREINCUBATION
  mutagenic call: active; positive
Test System: AMES SALMONELLA TYPHIMURIUM, Strain/Indicator: TA102, Metabolic Activation: NONE, Method: PREINCUBATION
  mutagenic call: inactive; negative
Test System: AMES SALMONELLA TYPHIMURIUM, Strain/Indicator: TA102, Metabolic Activation: RAT, LIVER, S-9, AROCLOR, Method: PREINCUBATION
  mutagenic call: inactive; negative
Test System: UDS RAT HEPATOCYTES, Strain/Indicator: THY INCORP, Metabolic Activation: NONE
  mutagenic call: active; positive

## CCc1c2ccccc2c(CC)c2c1ccc1ccccc12
Test System: AMES SALMONELLA TYPHIMURIUM, Strain/Indicator: TA98, Method: STANDARD PLATE
  mutagenic call: inactive; negative
[6]
  mutagenic call: inactive; negative
Test System: AMES SALMONELLA TYPHIMURIUM, Strain/Indicator: TA100, Method: STANDARD PLATE
  mutagenic call: inactive; negative

## c1ccc(-c2cccnc2)nc1
Test System: AMES SALMONELLA TYPHIMURIUM, Strain/Indicator: TA97, Metabolic Activation: RAT, LIVER, S-9, PHENOBARBITAL, Method: STANDARD PLATE
  mutagenic call: active; positive
Test System: AMES SALMONELLA TYPHIMURIUM, Strain/Indicator: TA97, Metabolic Activation: RAT, LIVER, S-9, SODIUM PHENOBARBITAL, Method: PREINCUBATION
  mutagenic call: active; positive
[7]
  mutagenic call: inactive; negative
[6]
  mutagenic call: inactive; negative
Test System: AMES SALMONELLA TYPHIMURIUM, Strain/Indicator: TA100, Metabolic Activation: RAT, LIVER, S-9, SODIUM PHENOBARBITAL, Method: PREINCUBATION
  mutagenic call: active; positive
Test System: AMES SALMONELLA TYPHIMURIUM, Strain/Indicator: TA1535, Metabolic Activation: RAT, LIVER, S-9, PHENOBARBITAL, Method: STANDARD PLATE
  mutagenic call: inactive; negative
Test System: AMES SALMONELLA TYPHIMURIUM, Strain/Indicator: TA1537, Metabolic Activation: RAT, LIVER, S-9, PHENOBARBITAL, Method: STANDARD PLATE
  mutagenic call: active; positive
Test System: AMES SALMONELLA TYPHIMURIUM, Strain/Indicator: TA1538, Metabolic Activation: RAT, LIVER, S-9, PHENOBARBITAL, Method: STANDARD PLATE
  mutagenic call: inactive; negative

## COc1ccc2nc3occc3c(OC)c2c1
[7]
  mutagenic call: active; positive
[6]
  mutagenic call: active; positive

## O=[N+]([O-])c1ccc2ccc3cccc4cc(O)c1c2c34
[3]
  mutagenic call: active; positive
[5]
  mutagenic call: active; positive
